Measurements taken from BindingDB's records for doi:10.7270/Q22F7KMG (Eli Lilly, 1995).

Tests used:
[1] = biological target: T1, Gag-Pol polyprotein [489-587] (Human immunodeficiency virus 1, UniProt P04585)
T1 construct: 489-587

[2] = biological target: T2, Dimer of Gag-Pol polyprotein [489-587] (Human immunodeficiency virus 1, UniProt P12497); assay: Protease Inhibition Assay; conditions: pH 5.5; 22 °C
T2 construct: 489-587
Source text: (§1) In the presence of HIV-l protease, the substrate is rapidly cleaved into two parts. The biotinylated amino terminal fragment binds to the avidin Pandex beads while the FITC-containing carboxy1 terminal fragment is removed through the membrane.

[3] = biological target: T1, Gag-Pol polyprotein [489-587]; assay: Protease Inhibition Assay
Source text: as §1

Row | Structure (SMILES) | IC50 [1] [nM] | IC50 [2] [nM] | IC50 [3] [nM]
1 | CC(C)(C)NC(=O)[C@@H]1C[C@@H]2SCC[C@@H]2CN1C[C@@H](O)[C@H](Cc1ccccc1)NC(=O)[C@@H](CS(=O)(=O)c1ccc(F)cc1)NC(=O)C(F)(F)F [(3aR,6S,7aS)-N-tert-butyl-5-[(2R,3S)-3-[(2S)-3-[(4-fluorobenzene)sulfonyl]-2-(2,2,2-trifluoroacetamido)propanamido]-2-hydroxy-4-phenylbutyl]-octahydrothieno[3,2-c]pyridine-6-carboxamide] | < 0.2 | < 0.2 | 
2 | CC(C)(C)NC(=O)[C@@H]1C[C@@H]2SCC[C@@H]2CN1C[C@@H](O)[C@H](Cc1ccccc1)NC(=O)[C@@H](CS(=O)(=O)c1ccc2ccccc2c1)NC(=O)C(F)(F)F [(3aR,6S,7aS)-N-tert-butyl-5-[(2R,3S)-2-hydroxy-3-[(2S)-3-(naphthalene-2-sulfonyl)-2-(2,2,2-trifluoroacetamido)propanamido]-4-phenylbutyl]-octahydrothieno[3,2-c]pyridine-6-carboxamide] | < 0.2 | < 0.2 | 
3 | CC(C)(C)NC(=O)[C@@H]1C[C@@H]2SCC[C@@H]2CN1C[C@@H](O)[C@H](Cc1ccccc1)NC(=O)[C@@H](CS(=O)(=O)c1ccc2ccccc2c1)NS(C)(=O)=O [(3aR,6S,7aS)-N-tert-butyl-5-[(2R,3S)-2-hydroxy-3-[(2S)-2-methanesulfonamido-3-(naphthalene-2-sulfonyl)propanamido]-4-phenylbutyl]-octahydrothieno[3,2-c]pyridine-6-carboxamide] | < 0.2 | < 0.2 | 
4 | CC(=O)N[C@H](CSCc1ccccc1)C(=O)N[C@@H](Cc1ccccc1)[C@H](O)CN1C[C@H]2CCCC[C@H]2C[C@H]1C(=O)NC(C)(C)C [(3S,4aS,8aS)-2-[(2R,3S)-3-[(2S)-3-(benzylsulfanyl)-2-acetamidopropanamido]-2-hydroxy-4-phenylbutyl]-N-tert-butyl-decahydroisoquinoline-3-carboxamide] |  | 6 | 6
5 | CC(C)(C)NC(=O)[C@@H]1C[C@@H]2CCCC[C@@H]2CN1C[C@@H](O)[C@H](Cc1ccccc1)NC(=O)[C@@H](CS(=O)(=O)c1ccc2ccccc2c1)NS(C)(=O)=O [(3S,4aS,8aS)-N-tert-butyl-2-[(2R,3S)-2-hydroxy-3-[(2S)-2-methanesulfonamido-3-(naphthalene-2-sulfonyl)propanamido]-4-phenylbutyl]-decahydroisoquinoline-3-carboxamide] |  | 0.5 | 0.5
6 | CC(C)(C)NC(=O)[C@@H]1C[C@@H]2SCC[C@@H]2CN1C[C@@H](O)[C@H](Cc1ccccc1)NC(=O)[C@@H](CS(=O)(=O)c1ccc(F)cc1)NS(C)(=O)=O [(3aR,6S,7aS)-N-tert-butyl-5-[(2R,3S)-3-[(2S)-3-[(4-fluorobenzene)sulfonyl]-2-methanesulfonamidopropanamido]-2-hydroxy-4-phenylbutyl]-octahydrothieno[3,2-c]pyridine-6-carboxamide] |  | 0.22 | 0.22
7 | CC(C)CN(C[C@@H](O)[C@H](Cc1ccccc1)NC(=O)[C@@H](CS(=O)(=O)c1ccc(F)cc1)NS(C)(=O)=O)C(=O)NC(C)(C)C [(2S)-N-[(2S,3R)-4-[(tert-butylcarbamoyl)(2-methylpropyl)amino]-3-hydroxy-1-phenylbutan-2-yl]-3-[(4-fluorobenzene)sulfonyl]-2-methanesulfonamidopropanamide] |  | 10 | 10
8 | CC(=O)N[C@H](CS(=O)(=O)c1cccc2cccnc12)C(=O)N[C@@H](Cc1ccccc1)[C@H](O)CN1C[C@H]2CCCC[C@H]2C[C@H]1C(=O)NC(C)(C)C [(3S,4aS,8aS)-N-tert-butyl-2-[(2R,3S)-3-[(2S)-2-acetamido-3-(quinoline-8-sulfonyl)propanamido]-2-hydroxy-4-phenylbutyl]-decahydroisoquinoline-3-carboxamide] |  | 1.7 | 1.7
